For data set [1] the following is noted: hydrochloride salt compared to the base; cited from earlier work.
The nature of data set [2]: Solubility in water / dissolution buffer. The data set is classed as physicochemical. The following applies: compared to hydrated naltrexone base; isotonic phosphate buffer.
Data set [3] is described as follows: Drug release from drug-loaded biodegradable vehicles at 37° C. in isotonic phosphate buffer. The data set is classed as physicochemical. The following applies: compared to hydrated naltrexone base, 25% polymer (i.v. 0.64) with pure PEG 400 or 50/50% PEG 400/TEC, drug 20% w/w.
Assay in data set [4]: as above
Format: physicochemical. The following applies: for drug release: drug 20% w/w. The protocol:
A polymer (25% w/w of 50/50 lactide-co-glycolide copolymer, inherent viscosity of 0.59) was dissolved in a minimum quantity of acetone. […] The resulting solutions were stirred to yield uniform mixtures. Acetone was evaporated from the mixtures by heating at 60-75° C. with constant stirring. The biodegradable vehicles were kept in a vacuum oven at 60-75° C. overnight to ensure complete removal of acetone. […] Oxytetracycline base (20% w/w) was added to each biodegradable vehicle and mixed thoroughly to ensure uniform distribution of the drug in the formulations. Drug release from the drug-loaded biodegradable vehicles was performed at 37° C. in isotonic phosphate buffer containing sodium sulfite as an antioxidant. […]
A polymer (25% w/w of 50/50 lactide-co-glycolide copolymer, inherent viscosity of 0.59) was dissolved in a minimum quantity of acetone. Either pure polyethylene glycol 400, triethyl citrate (TEC) or acetyl triethyl citrate (ATEC) was added to the polymer solution. The resulting solutions were stirred to yield uniform mixtures. Acetone was evaporated from the mixtures by heating at 60-75° C. with constant stirring. The biodegradable vehicles were kept in a vacuum oven at 60-75° C. overnight to ensure complete removal of acetone. […] Oxytetracycline base (20% w/w) was added to each biodegradable vehicle and mixed thoroughly to ensure uniform distribution of the drug in the formulations. Drug release from the drug-loaded biodegradable vehicles was performed at 37° C. in isotonic phosphate buffer containing sodium sulfite as an antioxidant. Drug release was fastest from formulations prepared with PEG 400, and slowest from those prepared with ATEC.
The resulting solutions were stirred to yield uniform mixtures. Acetone was evaporated from the mixtures by heating at 60-75° C. with constant stirring. The biodegradable vehicles were kept in a vacuum oven at 60-75° C. overnight to ensure complete removal of acetone. […] Oxytetracycline base (20% w/w) was added to each biodegradable vehicle and mixed thoroughly to ensure uniform distribution of the drug in the vehicles. Drug release from the drug-loaded biodegradable vehicles was performed at 37° C. in isotonic phosphate buffer containing sodium sulfite as an antioxidant. Faster drug release was observed from formulations prepared with a 16.67% polymer and 83.3% of plasticizer blends of varying compositions (polymer to plasticizer ratio of 1:5) compared to those prepared from formulations with polymer to plasticizer ratios of […] (i.e. […]). This is because increasing the polymer concentration in the formulations from 16.67% to 33.3% increased the viscosity of the formulations and decreased the drug diffusion from the formulations. […]
The solutions were stirred to yield a uniform mixture. Acetone was evaporated from the mixtures by heating at 60-75° C. with constant stirring. The biodegradable vehicles were kept in a vacuum oven at 60-75° C. overnight to ensure complete removal of acetone. […] Either hydrated naltrexone base (20% w/w) or naltrexone hydrochloride (20% w/w) was added to the biodegradable vehicles and mixed thoroughly to ensure uniform distribution of the drugs in the formulations. Drug release from the drug-loaded biodegradable vehicles was performed at 37° C. in isotonic phosphate buffer. […] This is because the solubility of the naltrexone hydrochloride in the dissolution buffer is much greater than that of the hydrated naltrexone base.
A similar drug release study was performed with formulations containing either 20% oxytetracycline hydrochloride or 20% oxytetracycline base. […] The solutions were stirred to yield a uniform mixture. Acetone was evaporated from the mixtures by heating at 60-75° C. with constant stirring. The biodegradable vehicles were kept in a vacuum oven at 60-75° C. overnight to ensure complete removal of acetone. […]

Each structure is given as a SMILES string. Counter-ions that a name gives are not always drawn.

For the molecule `CN(C)[C@@H]1C(O)=C(C(N)=O)C(=O)[C@@]2(O)C(O)=C3C(=O)c4c(O)cccc4[C@@](C)(O)[C@H]3[C@H](O)[C@@H]12` [oxytetracycline hydrochloride], the aqueous solubility result in data set [1] is “greater”.
Turning to `O=C1CC[C@@]2(O)[C@H]3Cc4ccc(O)c5c4[C@@]2(CCN3CC2CC2)[C@H]1O5` [naltrexone hydrochloride], the “solubility in the dissolution buffer” value in data set [2] was “much greater”. The drug release result in data set [3] is recorded as “considerably faster”.
For the molecule `CN(C)[C@@H]1C(=O)C(C(N)=O)=C(O)[C@@]2(O)C(=O)C3=C(O)c4c(O)cccc4[C@@](C)(O)[C@H]3[C@H](O)[C@@H]12` [oxytetracycline base], the drug release result is “considerably faster” in data set [4] (blend of 75% PEG 400 and 25% TEC compared to 50/50% PEG 400/TEC at similar polymer to plasticizer ratios); “Intermediate” in data set [4] (formulations prepared from TEC, 25% w/w polymer, compared among PEG 400, TEC, ATEC); “slowest” in data set [4] (formulations prepared with ATEC, 25% w/w polymer, compared among PEG 400, TEC, ATEC); “fastest” in data set [4] (formulations prepared with PEG 400, 25% w/w polymer, compared among PEG 400, TEC, ATEC); “dramatically increased” in data set [4] (on decreasing inherent viscosity of polymer from 0.76 to 0.15, PEG 400); “dramatically increased” in data set [4] (on decreasing polymer in the formulations from 25% to 10% (PEG 400 75% to 90%), 37° C.). The drug release result in data set [4] (on increasing PEG 400 from 0% PEG 400/100% TEC to 100% PEG 400/0% TEC, 25% w/w polymer, 37° C.) is given as “faster”; in data set [4] (polymer to plasticizer ratio 1:5 (16.67% polymer) compared to 1:3, PEG 400/TEC blends), “Faster”. In data set [4] (on increasing drug in the formulations from 10 to 30% w/w, 25% w/w 50/50 PLGA (i.v. 0.59) + PEG 400, 37° C., isotonic phosphate buffer with sodium sulfite), the “cumulative amount of drug released” value is “increased”.

Values taken from patent US6432438B1, “Biodegradable vehicle and filler” (priority 1997, dated 2002).
